This note sets out measurements from PubChem BioAssay (NCI).

Among the test systems are A549 NSCLC; SNB-75 CNS; NCI-H460 lung; UACC-257 melanoma; RXF 393 renal; SK-MEL-28 melanoma; OVCAR-5 ovarian; SF-295 CNS; HCC-2998 colon; HOP-62 NSCLC.
What all share (test): DTP human tumour cell line panel, 48 h

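These data come from cells grown in 96-well plates and exposed to compound for 48 hours at five concentrations. GI50 marks 50% less growth. TGI denotes the concentration required for complete inhibition of growth.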 A value given as a limit tells only on which side of the number the result lay.

One may read the GI50 as the concentration that inhibits growth by half. In general, TGI refers to the concentration giving total growth inhibition. A lower TGI goes with more potent growth arrest. As to `CN1CCN(c2cc(C(=O)Nc3cc4cc(-c5cnn(C)c5)ccc4cn3)ccn2)CC1`, the GI50 with A549 NSCLC is 43.2 nM; in the experiment on SNB-75 CNS, 137 nM; in the experiment on NCI-H460 lung, 121 nM; in the experiment with UACC-257 melanoma it was 146 nM; in the experiment on RXF 393 renal, 258 nM; with SK-MEL-28 melanoma, 217 nM. In addition, the GI50 in the experiment on OVCAR-5 ovarian is 308 nM; with SF-295 CNS, 306 nM; with HCC-2998 colon, 276 nM; with HOP-62 NSCLC, 207 nM. The TGI with A549 NSCLC is 11.4 µM; in the experiment on SNB-75 CNS it was 0.833 µM; with NCI-H460 lung, 11.7 µM; with UACC-257 melanoma it was 10.4 µM; in the experiment with RXF 393 renal it was 0.724 µM; with SK-MEL-28 melanoma, 2.89 µM. Moreover, the TGI in the experiment on OVCAR-5 ovarian was 11.9 µM; in the experiment on SF-295 CNS it was 13.2 µM; in the experiment with HCC-2998 colon, 4.57 µM; in the experiment on HOP-62 NSCLC, 12.7 µM.
Turning to `CC1(C)OB(O)OC1(C)C`, the TGI in the experiment with A549 NSCLC, with SNB-75 CNS, with NCI-H460 lung, in the experiment with UACC-257 melanoma, in the experiment on RXF 393 renal and in the experiment with SK-MEL-28 melanoma was > 100 µM each time. For the same compound, the TGI in the experiment with OVCAR-5 ovarian, in the experiment with SF-295 CNS, in the experiment with HCC-2998 colon and in the experiment with HOP-62 NSCLC was > 100 µM each time.
For the compound `O=S(=O)(SCc1ccccc1)C(c1ccccc1)c1ccccc1`, the TGI in the experiment with A549 NSCLC is > 100 µM; in the experiment on SNB-75 CNS, > 100 µM; with NCI-H460 lung it was > 100 µM; with UACC-257 melanoma, > 100 µM; in the experiment with RXF 393 renal it was 68 µM; in the experiment on SK-MEL-28 melanoma it was > 100 µM. The TGI in the experiment on OVCAR-5 ovarian, in the experiment on SF-295 CNS, in the experiment on HCC-2998 colon and in the experiment with HOP-62 NSCLC was > 100 µM each time.
